According to US20240309090A1, “MODULATION OF ANDROGEN SIGNALING TO INNATE IMMUNE KILLING OF PROSTATE CANCER” (Brown University, priority 2023, published 2024):

Experiments:
[1] = test system: PC cell lines (LNCap, 22Rv1, DU145, PC3); experiment: Co-cultures of PC cell lines with NK cells (1:1), immune-mediated PC killing; assay type: cell-based; conditions: for immune-mediated PC killing effect: Example 2, PC with NK-92 cells and patient-derived NK cells, within 24 hrs
Description: (§1) Prostate cancer cell lines were dyed with the blue CMAC live-cell dye (Thermo Fisher Scientific #C2110, per manufacturer protocol). Blue-fluorescent cancer cells were plated at a density of 10,000 cells per well of a 48-well plate. NK-92 cells were dyed with green CMFDA (Cayman Chemical Company #19583, per manufacturer protocol). Green-fluorescent NK-92 cells were added to the blue-fluorescent cancer cells at a 1:1 ratio. Enzalutamide (10 μM), darolutamide (20 μM), and 1 μM ethidium homodimer (EthD-1) were added at the same time as the NK cells. After 24 hours of co-culture, images of live cancer cells, live NK cells, and dead cells were taken using a fluorescent microscope. The co-culture experiments were run with internal control conditions and as a single treatment. Normalization was performed after analysis to take baseline death conditions into each experiment run. To optimize the high output of these experiments, a subset of co-cultures were performed using the ImageXpress® Micro Confocal High-Content Imaging. This analysis maintained the experiment conditions, drug concentrations, and the dyeing process. When GFP-labeled tumor cells were used for culture assays, they were added in a 1:1 ratio. Cell adhered over 24 h, and when patient-derived NK cells were added, a control well was trypsinized, and cells resuspended and counted to adjust a 1:1 ratio before treatment addition. The experiments with blocking antibodies were performed using the ImageXpress system. TRAIL blocking ab was purchased from Santa Cruz TRAIL Antibody (RIK-2): sc-56246, and IFN gamma blocking Monoclonal Antibody (NIB42, #6-7318-81) was purchased from Thermo Fisher. The blocking mAb was added when NK cells were combined with tumor cells.
(§2) Live cancer cells, NK cells, and dead cells were quantified using FIJI (Fiji Is Just ImageJ) software for images derived from fluorescent co-culture images. Images from the ImageXpress system were quantified using MetaXpress cytoplasmic/nuclear staining software. The percent of dead tumor cells in each well was quantified, and this percentage was normalized by subtracting baseline death from cancer cell-only wells, NK cell-only wells, or both. A two-way ANOVA was used to calculate the interaction effect between drug treatment and NK cells.
In groups with a significant interaction effect, data was further normalized in the cancer cell+NK cells+drug treatment well by subtracting out death in the cancer cell+drug well. A one-way ANOVA and multiple comparison analysis with subsequent t-tests were used to calculate the statistical significance of the difference between this group and the cancer cell+NK cell well. GraphPad Prism Version 9.5.1 was used for statistical analysis.
We conducted cell viability assays to investigate the effect of Enza and Daro on PC cells (LNCap, 22Rv1 [ARv7 mutation], DU145, PC3 [AR-]) and NK-92 cells. We performed co-culture experiments with PC and NK cells in a 1:1 ratio and analyzed immune cell-mediated tumor cell killing (ImageXpress Confocal HT). Cytokine profiling (Luminex 200) of culture supernatants was performed following treatment with ARi−/+ and anti-IFN-γ antibodies. In vivo studies were performed in NCr Nude mice harboring subcutaneous PC tumors treated orally with Daro (50 mg/kg/bid) and Enza (30 mg/kg/bid) for 4 weeks.
We performed ATP-based (CellTiter-Glo) viability assays to investigate the effect of Enzalutamide and Darolutamide on PC cell lines (LNCap, 22Rv1 [ARv7 mutation], DU145, PC3 [AR-]) and NK-92 cells. We performed co-culture experiments with PC and NK cells at a 1:1 ratio throughout 4 h, 6 h, 12 h, 24 h, and 48 h periods. We analyzed immune cell-mediated tumor cell killing in the presence of Enza and Darolutamide (ImageXpress Confocal HT). Western Blotting was performed to evaluate different protein expression levels and their regulation related to sensitivity in mediating immune-mediated cell killing (apoptotic family). […]

PC3 [2] = experiment: Co-culture of GFP-expressing PC3 with patient-derived NK cells; assay type: cell-based, human; conditions: GFP PC3, 1:1, 24 h; monalizumab in combination with enza and daro
Description: To validate an additive effect of ARi and monalizumab enhancing NK cell cytotoxicity, we performed a co-culture assay with GFP-labeled PCa cell lines (including ARi-sensitive LNCaP and ARi-resistant PC3) and patient-derived NK cells. The NK cells were negatively selected from whole blood from patients with metastatic prostate cancer before initiation of androgen deprivation therapy. The addition of enzalutamide or darolutamide enhanced the cytotoxicity of NK cells, and the combination of ARi with monalizumab potentiated immune killing (FIG. 15C-D).
as §1
NK cells were isolated from patients harboring metastatic castration-sensitive prostate cancer using the MojoSort™ Human NK Cell Isolation Kit (#480053). Patients signed informed consent for IRB-approved research protocol number 2055-13, allowing the collection of peripheral blood samples. […] The untouched NK cells (CD56+, CD3−) were collected, and the purity of isolation was determined by flow cytometry using anti-CD56 (BioLegend 362503). […]

PC3 [3] = experiment: Co-culture of PC3 with NK-92 cells, immune-mediated tumor cell killing; assay type: cell-based; conditions: PC3 + NK-92 1:1, 24 hours
Description: (§3) They were co-treated with enzalutamide ([…]) or darolutamide (20 μM) for 48 h. Doses of AR inhibitors (ARi) used in the co-culture experiments were based on previous IC50 experiments. […] The immune-mediated effect of NK-92 on the PCa cell lines in the presence of enzalutamide (immune enhancement death) was normalized to baseline immune and tumor cell killing in each condition [(tumor cells+immune cells)-tumor baseline death=baseline immune death]. […] Cytokine analysis was performed to investigate the activation phenotype of NK cells when treated with ARi.
Prostate cancer cell lines were dyed with the blue CMAC live-cell dye (Thermo Fisher Scientific #C2110, per manufacturer protocol). […] Cell adhered over 24 h, and when patient-derived NK cells were added, a control well was trypsinized, and cells resuspended and counted to adjust a 1:1 ratio before treatment addition. […]
as §2, with “both.” for “both. A two-way ANOVA was used to calculate the interaction effect between drug treatment and NK cells.”

22Rv1 = experiment: Co-culture of 22Rv1 with NK-92 cells, immune-mediated tumor cell killing; assay type: cell-based
Description: as §3
Prostate cancer cell lines were dyed with the blue CMAC live-cell dye (Thermo Fisher Scientific #C2110, per manufacturer protocol). Blue-fluorescent cancer cells were plated at a density of 10,000 cells per well of a 48-well plate. NK-92 cells were dyed with green CMFDA (Cayman Chemical Company #19583, per manufacturer protocol). Green-fluorescent NK-92 cells were added to the blue-fluorescent cancer cells at a 1:1 ratio. Enzalutamide (10 μM), darolutamide (20 μM), and 1 μM ethidium homodimer (EthD-1) were added at the same time as the NK cells. After 24 hours of co-culture, images of live cancer cells, live NK cells, and dead cells were taken using a fluorescent microscope. The co-culture experiments were run with internal control conditions and as a single treatment. Normalization was performed after analysis to take baseline death conditions into each experiment run. […] Cell adhered over 24 h, and when patient-derived NK cells were added, a control well was trypsinized, and cells resuspended and counted to adjust a 1:1 ratio before treatment addition. […]
as §2, with “both.” for “both. A two-way ANOVA was used to calculate the interaction effect between drug treatment and NK cells.”

[4] = Example 1, PC + NK-92, within 24 hours
[5] = Example 2, PC + NK-92, within 24 hours, blocking mAbs 10 ug/ml

Structure (SMILES)	immune-mediated PC killing [1, 4] [%]	immune-mediated PC killing [1, 5] [%]	immune-mediated PC killing effect [1] [%]	killing of PCa cells by patient-derived NK cells (in words) (PC3 [2])	cell death rate (NK cell-mediated tumor killing) (PC3 [3]) [%]	cell death rate (NK cell-mediated tumor killing) (22Rv1; 22Rv1 + NK-92 1:1, 24 hours) [%]	NK cell killing of PCa cells (immune enhancement) (22Rv1; 22Rv1 + NK-92 1:1, enzalutamide 10 μM, FIG. 15B) [%]
CC(O)c1cc(C(=O)N[C@@H](C)Cn2ccc(-c3ccc(C#N)c(Cl)c3)n2)n[nH]1 (some centres unmarked) [darolutamide]	41	36	36	enhanced	–	–	–
CNC(=O)c1ccc(N2C(=S)N(c3ccc(C#N)c(C(F)(F)F)c3)C(=O)C2(C)C)cc1F [enzalutamide]	36	40	40	enhanced	11.05±4.6	52.67±8.96	34.84
